From paper PMC10762035, “Molecular basis of human trace amine-associated receptor 1 activation” (Nature Communications, 2024)
Substitutions are numbered along the chain they refer to. “And” between values parts separate entries of the source, which are not always exact repeats. Equal entries are not always repeated. Where two headings read alike, the source gives them in different places.

What was measured:
Format in all cases: cell-based
[1] = molecular target: T1, hTA1 C88S (Homo sapiens, UniProt Q96RJ0, C88S); assay: GloSensor cAMP accumulation assay, C88S mutant; conditions: for Emax: relative to β-PEA; for Normalized Luminescence Counts: C88S (N=2), log[Agonist]
T1 construct: expressed in transfected cells; host or cells: HEK293T
T1 sequence (Q96RJ0 1-339 C88S): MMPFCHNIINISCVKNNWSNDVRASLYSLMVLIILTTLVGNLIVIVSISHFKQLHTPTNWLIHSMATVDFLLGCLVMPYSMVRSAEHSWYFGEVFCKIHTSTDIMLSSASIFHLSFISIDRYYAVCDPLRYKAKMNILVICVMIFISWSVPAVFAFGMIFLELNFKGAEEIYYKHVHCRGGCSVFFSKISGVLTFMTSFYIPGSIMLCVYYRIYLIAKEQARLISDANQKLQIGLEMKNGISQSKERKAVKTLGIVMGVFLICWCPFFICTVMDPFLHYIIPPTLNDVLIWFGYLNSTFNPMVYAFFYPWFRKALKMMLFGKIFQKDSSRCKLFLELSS

[2] = molecular target: T2, hTA1 C96S (Homo sapiens, UniProt Q96RJ0, C96S); assay: GloSensor cAMP accumulation assay, C96S mutant; conditions: log[Compound]
T2 construct: expressed in transfected cells; host or cells: HEK293T
T2 sequence (Q96RJ0 1-339 C96S): T1 sequence (Q96RJ0 1-339 C88S) with S88C, C96S

[3] = molecular target: T3, hTA1 I290N (Homo sapiens, UniProt Q96RJ0, I290N); assay: GloSensor cAMP accumulation assay, I290N mutant;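 also: cells transiently co-expressing hTA1 and the GloSensor cAMP biosensor, luminescence read 30 min after compound addition at room temperature, efficacy scaled to the maximal β-PEA response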
T3 construct: expressed in transfected cells; host or cells: HEK293T
T3 sequence (Q96RJ0 1-339 I290N): T1 sequence (Q96RJ0 1-339 C88S) with S88C, I290N

[4] = molecular target: T4, hTA1 F195T (Homo sapiens, UniProt Q96RJ0, F195T); assay: GloSensor cAMP accumulation assay, F195T mutant;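 also: cells transiently co-expressing HA-FLAG-tagged hTA1 and the GloSensor cAMP biosensor, luminescence read 30 min after agonist addition at room temperature, concentration-response fitted by nonlinear regression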
T4 construct: expressed in transfected cells; host or cells: HEK293T
T4 sequence (Q96RJ0 1-339 F195T): T1 sequence (Q96RJ0 1-339 C88S) with S88C, F195T

[5] = molecular target: T5, hTA1 T271N (Homo sapiens, UniProt Q96RJ0, T271N); assay: GloSensor cAMP accumulation assay, T271N mutant
T5 construct: expressed in transfected cells; host or cells: HEK293T
T5 sequence (Q96RJ0 1-339 T271N): T1 sequence (Q96RJ0 1-339 C88S) with S88C, T271N

Cc1c(F)cccc1[C@H]1COC(N)=N1 [Ro5263397]
Emax values ([1]; C88S, Mean of fit per experiment): 109.361 and 91.1412 | Span ± SEM (Emax normalized to β-PEA) ([1]; C88S, n=2): 100.25 ± 9.11 | pEC50 ± SEM ([1]; C88S, n=2): 8.78 ± 0.06 | EC50 ([1]; C88S, n=2, read-out: EC50): 1.64 nM | Emax ([1]; C88S): 100.3% | Normalized Luminescence Counts ([2]; C96S, M = -5, single replicates (N=2)): 9.313 (2×) and 10.6308 and 10.8582 and 5.048 and -2.698 | Normalized Luminescence Counts ([2]; C96S, M = -5.522, single replicates (N=2)): 2.723 and 6.018 and 1.4045 and 10.8582 and 101.879 and 20.5413 | Normalized Luminescence Counts ([2]; C96S, M = -6, single replicates (N=2)): 1.4045 (2×) and 2.064 and 3.112 and 14.7315 and -4.6346 | Normalized Luminescence Counts ([2]; C96S, M = -6.522, single replicates (N=2)): -1.891 (2×) and 0.08646 and -2.698 (2×) and -0.7614 | Normalized Luminescence Counts ([2]; C96S, M = -7, single replicates (N=2)): -0.5726 and 2.723 and -2.55 and 37.9707 and -8.508 and -4.6346 | Normalized Luminescence Counts ([2]; C96S, M = -7.522, single replicates (N=2)): 2.064 and 1.4045 and -1.232 and -2.698 and 12.7948 and -14.3176 | Normalized Luminescence Counts ([2]; C96S, M = -8, single replicates (N=2)): -0.5726 and 0.08646 and -1.891 and 14.7315 (3×) | Normalized Luminescence Counts ([2]; C96S, M = -8.522, single replicates (N=2)): 0.08646 and 2.064 and -1.232 and 22.4779 and 6.985 (2×) | Normalized Luminescence Counts ([2]; C96S, M = -9, single replicates (N=2)): -3.868 and 0.08646 and -3.209 and 10.8582 (3×) | Normalized Luminescence Counts ([2]; C96S, M = -9.522, single replicates (N=2)): -3.209 and 0.08646 and -5.186 and 1.175 and 3.112 (2×) | Normalized Luminescence Counts ([2]; C96S, M = -10, single replicates (N=2)): -3.209 and 0.08646 and -0.5726 and 28.2877 and 5.048 and 61.21 | Normalized Luminescence Counts ([2]; C96S, M = -10.522, single replicates (N=2)): -2.55 and -0.5726 and -3.868 and -0.7614 (2×) and 1.175 | Normalized Luminescence Counts ([2]; C96S, M = -11, single replicates (N=2)): 0.7455 (2×) and 4.041 and 47.6538 and 53.4636 and 12.7948 | Normalized Luminescence Counts ([2]; C96S, M = -11.522, single replicates (N=2)): 2.064 and 4.7 and 0.08646 and 8.922 | Normalized Luminescence Counts ([2]; M = -11.522, single replicates, mutant block above C178S): 1.347 and 1.551 and 1.574 and 1.444 and 1.07 and 0.4821 | Normalized Luminescence Counts ([2]; M = -12, single replicates, mutant block above C178S): 2.211 and 3.099 and 1.62 and 0.7492 and 1.283 and 0.5889 | Normalized Luminescence Counts ([2]; M = -12.522, single replicates, mutant block above C178S): 0.07201 and 0.2541 and -0.1784 and 1.444 and 0.7492 and -0.5864 | Span ± SEM (Emax normalized to β-PEA) ([3]; I290N, n=2): 83.69 ± 1.69 | pEC50 ± SEM ([3]; I290N, n=2): 8.33 ± 0.07 | EC50 ([3]; I290N, n=2, read-out: EC50): 4.63 nM | cAMP accumulation response, single replicate values (source data, Supplementary Figure 5) ([3]; hTA1 I290N (N=2), log[Compound], M = -5): 101.804 and 110.08 and 95.4137 and 103.531 | ΔpEC50 values (each mutant value - WT average), Mean ([3]; hTA1 I290N mutant minus WT average): -0.535 and -0.459 | pEC50 values, Mean ([3]; hTA1 I290N mutant, Figure 3B source data, each grid row a separate experiment, 3 replicates): 8.296 and 8.372 | Emax values, Mean ([3]; hTA1 I290N mutant, β-PEA set to 100, each grid row a separate experiment, 3 replicates): 85.3822 and 81.9937 | pEC50 values, Mean ([4]; F195T mutant, Figure 5B, each row one independent experiment (3 replicates)): 8.682 and 8.281 | Emax values, Mean ([4]; F195T mutant, Figure 5B, β-PEA = 100, each row one independent experiment (3 replicates)): 106.681 and 96.1093 | Span ± SEM (Emax normalized to β-PEA) ([4]; F195T, n=2): 101.40 ± 5.29 | pEC50 ± SEM ([4]; F195T, n=2): 7.68 ± 0.60 | EC50 ([4]; F195T, n=2, read-out: EC50): 20.9 nM | ΔpEC50 values (each mutant value - WT average), Mean ([5]; T271N mutant minus WT average, Figure 5B): -0.511 and -0.5494 | pEC50 values, Mean ([5]; T271N mutant, Figure 5B, each row one independent experiment (3 replicates)): 8.32 and 8.282 | Emax values, Mean ([5]; T271N mutant, Figure 5B, β-PEA = 100, each row one independent experiment (3 replicates)): 116.619 and 99.549 | Span ± SEM (Emax normalized to β-PEA) ([5]; T271N, n=2): 108.08 ± 8.54 | pEC50 ± SEM ([5]; T271N, n=2): 8.3 ± 0.07 | EC50 ([5]; T271N, n=2, read-out: EC50): 5 nM

CN1CC2c3ccccc3Oc3ccc(Cl)cc3C2C1 (stereo not shown) [asenapine]
Normalized Luminescence Counts ([1]; Asenapine, M -5): 78.2534 and 81.5764 and 79.8011 and 111.871 and 108.238 and 123.304 | Normalized Luminescence Counts ([1]; Asenapine, M -5.522): 94.436 and 87.9948 and 83.989 and 130.463 and 114.596 and 122.075 | Normalized Luminescence Counts ([1]; Asenapine, M -6): 79.8011 and 74.9077 and 70.7881 and 118.656 and 108.719 and 100.545 | Normalized Luminescence Counts ([1]; Asenapine, M -6.522): 57.5416 and 54.7649 and 49.5528 and 65.7127 and 60.6375 and 65.5525 | Normalized Luminescence Counts ([1]; Asenapine, M -7): 23.993 and 22.8778 and 24.6531 and 32.3228 and 28.1557 and 35.9556 | Normalized Luminescence Counts ([1]; Asenapine, M -7.522): 10.9969 and 9.859 and 9.563 and 7.801 and 8.763 and 9.724 | Normalized Luminescence Counts ([1]; Asenapine, M -8): 6.65 and 6.24 and 5.148 and 4.382 and 5.237 and 6.305 | ΔpEC50 values (each mutant value - WT average), Mean ([1]; C88S, Asenapine): -0.4947 and -0.3839 | Emax values, Mean ([1]; C88S, Asenapine, per experiment, 3 replicates): 126.964 and 89.044 | EC50 ([1]; C88S, Asenapine, per experiment, 3 replicates, read-out: pEC50 values Mean (converted)): 270 nM and 210 nM | EC50 ([1]; C88S, n=2, read-out: EC50): 238 nM | Emax ([1]; C88S, read-out: Emax): 108% | reduction in potency vs wild type ([3]; I290N): 4 fold | Emax values of Asenapine ([3]; I290N, Mean of one experiment): 77.7708 | Emax ([3]; I290N, Mean of one experiment, read-out: Emax values of Asenapine): 90.3% | EC50 ([3]; I290N, Mean of one experiment, read-out: pEC50 values of Asenapine (converted)): 1390 nM and 721 nM | EC50 ([3]; I290N, n=2, read-out: EC50): 1000 nM | Emax ([3]; I290N, n=2, read-out: Span ± SEM (Emax normalized to β-PEA)): 84 ± 6.25% | EC50 ([3]; I290N, n=2, read-out: pEC50 ± SEM (converted)): 1000 nM | Emax ([3]; I290N, relative to β-PEA, read-out: Emax): 84% | ΔEmax values (each mutant value - WT average), I290N, Mean ([3]; hTA1 I290N mutant vs WT average, Figure 6B, each line is one experiment (3 replicates)): 1.57 and -10.9365 | increase in potency vs wild type ([4]; F195T): 3 fold | ΔpEC50 values (each mutant value - WT average), Mean ([4]; F195T, Asenapine): -0.004135 and 0.1049 | Emax values, Mean ([4]; F195T, Asenapine, per experiment, 3 replicates): 90.8432 and 72.9114 | EC50 ([4]; F195T, Asenapine, per experiment, 3 replicates, read-out: pEC50 values Mean (converted)): 87.4 nM and 68 nM | EC50 ([4]; F195T, n=2, read-out: EC50): 77.1 nM | Emax ([4]; F195T, n=2, read-out: Span ± SEM (Emax normalized to β-PEA)): 81.9 ± 8.97% | Emax values of Asenapine ([5]; T271N, Mean of one experiment): 142.994 and 100.859 | EC50 ([5]; T271N, Mean of one experiment, read-out: pEC50 values of Asenapine (converted)): 496 nM and 463 nM | EC50 ([5]; T271N, n=2, read-out: EC50): 479 nM | Emax ([5]; T271N, n=2, read-out: Span ± SEM (Emax normalized to β-PEA)): 122% | Emax ([5]; T271N, relative to β-PEA, read-out: Emax): 122% | ΔEmax values (each mutant value - WT average), T271N, Mean ([5]; hTA1 T271N mutant vs WT average, Figure 6B, each line is one experiment (3 replicates)): 54.2867 and 12.1519
